In patent US20070207202A1, “PHARMACEUTICAL FORMULATIONS OF A MONOHYDRATE CRYSTAL FORM OF 2-(3-FLUORO-4-HYDROXYPHENYL)-7-VINYL-1,3-BENZOXAZOL-5-OL” (Wyeth, priority 2006, published 2007):

What was measured:
Format in all cases: physicochemical
[1] = Dynamic vapor sorption (hygroscopicity); details: for DVS gain: 0–90% RH
From the text: Dynamic Vapor Sorption (Allentown, Pa.) was used to measure the hygroscopicity of the anhydrate and monohydrate of the invention (see FIGS. 6 and 7). The step conditions were three hours each at 0%, 30%, 52.5%, 75% and 90% RH, two full cycles.

[2] = Long term stability of crystal forms (XRPD, TGA, HPLC); details: non-micronized, 40° C./75% RH (monohydrate also 40° C. without humidity control), three months
Procedure: Non-micronized samples of monohydrate and anhydrate were stored at 40° C./75% RH for three months. The monohydrate was also stored at 40° C. without humidity control. During the three months, the samples were checked after two weeks, one month, two months, and three months.

[3] = Water solubility of the two crystal forms
[4] = Medium term stability of crystal form (XRPD and TGA)
Procedure: Samples of monohydrate were stored at room temperature, 56° C., and 70° C. for one week. At room temperature, humidity was maintained at 0% RH. Humidity was not controlled for the higher temperatures.
The samples were analyzed by XRPD and TGA.

[5] = Short term stability of crystal form (XRPD)
[6] = Separate long term study of micronized and non-micronized anhydrate (XRPD)

Row | SMILES | hygroscopicity (DVS weight gain, in words) [1] | DVS gain ([1]; listed as monohydrate crystal form) | chemical stability by HPLC [2] | crystal form transformation by XRPD and TGA [2] | water solubility compared between the two forms (in words) [3] | crystal form stability by XRPD and TGA ([4]; 56° C., humidity not controlled, one week) | crystal form stability by XRPD and TGA ([4]; 70° C., humidity not controlled, 1 day) | crystal form stability by XRPD and TGA ([4]; 70° C., humidity not controlled, 4 days) | crystal form stability by XRPD and TGA ([4]; 70° C., humidity not controlled, 7 days) | crystal form stability by XRPD and TGA ([4]; room temperature, 0% RH, one week) | crystal form stability by XRPD ([5]; 70° C., one hour) | crystal form stability by XRPD ([5]; 90° C., one half hour) | crystal form stability by XRPD ([5]; 90° C., one hour) | DVS gain ([1]; listed as anhydrous crystal form) | crystal form transformation by XRPD ([6]; micronized samples, 25° C./60% RH, three months) | crystal form transformation by XRPD ([6]; micronized samples, 40° C./75% RH, one month) | crystal form transformation by XRPD ([6]; non-micronized samples, 40° C./75% RH)
1 | C=Cc1cc(O)cc2nc(-c3ccc(O)c(F)c3)oc12 [monohydrate, 2-(3-fluoro-4-hydroxyphenyl)-7-vinyl-1,3-benzoxazol-5-ol] | largely non-hygroscopic | 0.1% gain (0–90% RH) | chemically stable | did not transform | significantly lower solubility than the anhydrate | no obvious dehydration | no obvious hydration | partially dehydrated | mostly dehydrated | no obvious dehydration | stable | partially dehydrated | completely dehydrated |  |  |  | 
2 | C=Cc1cc(O)cc2nc(-c3ccc(O)c(F)c3)oc12 [anhydrate, 2-(3-fluoro-4-hydroxyphenyl)-7-vinyl-1,3-benzoxazol-5-ol] |  |  |  |  |  |  |  |  |  |  |  |  |  | 0.2% gain (0–90% RH) | did not transform to the monohydrate | partially transform to the monohydrate | did not show any obvious transformation
